Measurements from patent US20170152226A1, “FUNCTIONALISED AND SUBSTITUTED INDOLES AS ANTI-CANCER AGENTS” (Novogen Ltd., priority 2014, published 2017).
Where two headings read alike, the source gives them in different places.

Legend:
Assay in all cases: Anti-proliferative activity, cell-titre luminescent viability assay
Type in all cases: cell-based
[1] = test system: CaCo2; conditions: Homo sapiens, read-out: IC50 Colorectal CaCo2
Protocol: (§1) The ability of compounds 3501-3540 and 3542-3545 to inhibit the proliferation of cancer cells representative of neuroblastoma, melanoma, prostate cancer, colorectal cancer, non-small cell lung carcinoma, and triple negative breast cancer was assessed. Briefly, a pre-determined number of cells as calculated from cell growth assays for each of the cell lines employed were seeded into their respective culture medium (using ATCC culture parameters—http://www.atcc.org) and cultured for 24 hours at 37° C. and 5% CO2 in 96-well culture plates. Once attached, each cell line was then exposed to increasing concentrations of each respective analogue (0.03, 0.3, 3 and 30 μM for compounds in Table 1; 0.1, 0.3, 1, 3, 10 and 30 μM for compounds in Table 2), cultured for a further 72 hours and exposed to cell-titre luminescent reagent (100 μL/well) for a further 30 min) to assess for cell viability. Luminescence was captured using an EnVision multilabel reader and the data for each analogue concentration was normalized, as a percentage, to the no treatment control. For compounds 3501, 3503, 3505-08, 3512-18, 3520, 3522-24 and 3531-36, semi-log plots of Percent of Control versus concentration were prepared and IC50 determined using linear regression analysis. For compounds 3502, 3504, 3509-11, 3519, 3521, 3525-30, 3537-40 and 3542-45, cell viability was normalized to control (vehicle alone) and dose-response curves, and half maximal effective concentration (EC50) values were determined using Graph Pad Prism 6 (nonlinear regression sigmoidal dose-response variable slope).

[2] = test system: SK-N-SH; conditions: Homo sapiens, SK-N-SH, read-out: IC50 Neuroblastoma SK-N-SH
Protocol: as §1

[3] = test system: A549; conditions: Homo sapiens, read-out: IC50 Lung (NSLC) A549
Protocol: as §1

[4] = test system: SK-Mel-28; conditions: Homo sapiens, SK-MEL-28, 72 hours, read-out: IC50 Melanoma SK-Mel-28
Protocol: as §1

[5] = test system: MDA-MB-231; conditions: Homo sapiens, read-out: IC50 Breast MDA-MB-231
Protocol: as §1

[6] = test system: DU145; conditions: Homo sapiens, read-out: IC50 Prostate DU145
Protocol: as §1

[7] = test system: PC3; conditions: Homo sapiens, read-out: IC50 Prostate PC3
Protocol: as §1

[8] = Caco-2, 72 h, 0.03, 0.3, 3 and 30 μM, linear regression of semi-log plots
[9] = 72 h, 0.03, 0.3, 3 and 30 μM, linear regression of semi-log plots
[10] = A549, 72 h, 0.03, 0.3, 3 and 30 μM, linear regression of semi-log plots
[11] = 0.03, 0.3, 3 and 30 μM, linear regression of semi-log plots
[12] = MDA-MB-231, 72 h, 0.03, 0.3, 3 and 30 μM, linear regression of semi-log plots
[13] = DU-145, 72 h, 0.03, 0.3, 3 and 30 μM, linear regression of semi-log plots
[14] = PC-3, 72 h, 0.03, 0.3, 3 and 30 μM, linear regression of semi-log plots
[15] = Caco-2, 72 h, 0.1, 0.3, 1, 3, 10 and 30 μM, nonlinear regression sigmoidal dose-response (EC50)
[16] = 72 h, 0.1, 0.3, 1, 3, 10 and 30 μM, nonlinear regression sigmoidal dose-response (EC50)
[17] = A549, 72 h, 0.1, 0.3, 1, 3, 10 and 30 μM, nonlinear regression sigmoidal dose-response (EC50)
[18] = 0.1, 0.3, 1, 3, 10 and 30 μM, nonlinear regression sigmoidal dose-response (EC50)
[19] = MDA-MB-231, 72 h, 0.1, 0.3, 1, 3, 10 and 30 μM, nonlinear regression sigmoidal dose-response (EC50)
[20] = DU-145, 72 h, 0.1, 0.3, 1, 3, 10 and 30 μM, nonlinear regression sigmoidal dose-response (EC50)
[21] = PC-3, 72 h, 0.1, 0.3, 1, 3, 10 and 30 μM, nonlinear regression sigmoidal dose-response (EC50)

Row | SMILES | IC50 [1, 8] [µM] | IC50 [2, 9] [µM] | IC50 [3, 10] [µM] | IC50 [4, 11] [µM] | IC50 [5, 12] [µM] | IC50 [6, 13] [µM] | IC50 [7, 14] [µM] | IC50 [1, 15] [µM] | IC50 [2, 16] [µM] | IC50 [3, 17] [µM] | IC50 [4, 18] [µM] | IC50 [5, 19] [µM] | IC50 [6, 20] [µM] | IC50 [7, 21] [µM]
1 | COc1ccc(CCN2CCN(C(=O)c3cccc(Cc4ccc5c(c4)c(C)c(C)n5CCCN4CCN(C)CC4)c3)CC2)cc1 [Compound 3502, (3-((2,3-dimethyl-1-(3-(4-methylpiperazin-1-yl)propyl)-1H-indol-5-yl)methyl)phenyl)(4-(4-methoxyphenethyl)piperazin-1-yl)methanone] |  |  |  |  |  |  |  | 5.8 | 4.6 | 5 | 2.6 | 4.9 | 4.9 | 5.4
2 | Cc1c(C)n(CCCN2CCN(C)CC2)c2ccc(Cc3cccc(C(=O)N4CCN(CCc5ccc6c(c5)OCO6)CC4)c3)cc12 [Compound 3503, (4-(2-(benzo[d][1,3]dioxol-5-yl)ethyl)piperazin-1-yl)(3-((2,3-dimethyl-1-(3-(4-methylpiperazin-1-yl)propyl)-1H-indol-5-yl)methyl)phenyl)methanone] | 3.4 | 2.1 | 1.4 | 1 | 1 | 2.1 | 2.4 |  |  |  |  |  |  | 
3 | COc1cccc(CCN2CCN(C(=O)c3cccc(Cc4ccc5c(c4)c(C)c(C)n5CCCN4CCN(C)CC4)c3)CC2)c1 [Compound 3505, (3-((2,3-dimethyl-1-(3-(4-methylpiperazin-1-yl)propyl)-1H-indol-5-yl)methyl)phenyl)(4-(3-methoxyphenethyl)piperazin-1-yl)methanone] | 3.6 | 2.6 | 3.1 | 2.5 | 2.8 | 3.4 | 2.6 |  |  |  |  |  |  | 
4 | Cc1c(C)n(CCCN2CCN(C)CC2)c2ccc(Oc3cccc(C(=O)N4CCN(CCc5ccc6c(c5)OCO6)CC4)c3)cc12 [Compound 3509, (4-(2-(benzo[d][1,3]dioxol-5-yl)ethyl)piperazin-1-yl)(3-((2,3-dimethyl-1-(3-(4-methylpiperazin-1-yl)propyl)-1H-indol-5-yl)oxy)phenyl)methanone] |  |  |  |  |  |  |  | 5.2 | 5.3 | 4.7 | 5.1 | 5 | 5.9 | 6.9
5 | Cc1c(C)n(CCCN2CCN(C)CC2)c2ccc(Oc3cccc(C(=O)N4CCN(CCc5cccc(F)c5)CC4)c3)cc12 [Compound 3510, (3-((2,3-dimethyl-1-(3-(4-methylpiperazin-1-yl)propyl)-1H-indol-5-yl)oxy)phenyl)(4-(3-fluorophenethyl)piperazin-1-yl)methanone] |  |  |  |  |  |  |  | 5.8 | 4.6 | 6 | 4.9 | 20.4 | 8 | 8
6 | COc1cccc(CCN2CCN(C(=O)c3cccc(Oc4ccc5c(c4)c(C)c(C)n5CCCN4CCN(C)CC4)c3)CC2)c1 [Compound 3511, (3-((2,3-dimethyl-1-(3-(4-methylpiperazin-1-yl)propyl)-1H-indol-5-yl)oxy)phenyl)(4-(3-methoxyphenethyl)piperazin-1-yl)methanone] |  |  |  |  |  |  |  | 3.5 | 2.1 | 2.6 | 6.5 | 19.3 | 3.3 | 2.6
7 | Cc1c(C)n(CCCN2CCN(C)CC2)c2ccc(Nc3cccc(C(=O)N4CCN(CCc5ccc6c(c5)OCO6)CC4)c3)cc12 [Compound 3515, (4-(2-(benzo[d][1,3]dioxol-5-yl)ethyl)piperazin-1-yl)(3-((2,3-dimethyl-1-(3-(4-methylpiperazin-1-yl)propyl)-1H-indol-5-yl)amino)phenyl)methanone] | 4.6 | 3.4 | 4.3 | 2.7 | 3.3 | 4 | 4.9 |  |  |  |  |  |  | 
8 | COc1cccc(CCN2CCN(C(=O)c3cccc(Nc4ccc5c(c4)c(C)c(C)n5CCCN4CCN(C)CC4)c3)CC2)c1 [Compound 3517, (3-((2,3-dimethyl-1-(3-(4-methylpiperazin-1-yl)propyl)-1H-indol-5-yl)amino)phenyl)(4-(3-methoxyphenethyl)piperazin-1-yl)methanone] | > 30 | 4.5 | 4.4 | 3.7 | 5.3 | 7.1 | 21.1 |  |  |  |  |  |  | 

More lines, now with the values ahead:

Row | IC50 [1, 8] [µM] | IC50 [2, 9] [µM] | IC50 [3, 10] [µM] | IC50 [4, 11] [µM] | IC50 [5, 12] [µM] | IC50 [6, 13] [µM] | IC50 [7, 14] [µM] | IC50 [1, 15] [µM] | IC50 [2, 16] [µM] | IC50 [3, 17] [µM] | IC50 [4, 18] [µM] | IC50 [5, 19] [µM] | IC50 [6, 20] [µM] | IC50 [7, 21] [µM] | SMILES
9 | 3.1 | 3.1 | 3.7 | 1.3 | 2.1 | 2.6 | 2.4 |  |  |  |  |  |  |  | Cc1c(C)n(CCCN2CCN(C)CC2)c2ccc(Cc3cccc(C(=O)N4CCN(CCc5ccc(F)cc5)CC4)c3)cc12 [Compound 3501, (3-((2,3-dimethyl-1-(3-(4-methylpiperazin-1-yl)propyl)-1H-indol-5-yl)methyl)phenyl)(4-(4-fluorophenethyl)piperazin-1-yl)methanone]
10 | 2.7 | 3.7 | 3 | 1.3 | 1.9 | 3.2 | 2.1 |  |  |  |  |  |  |  | Cc1c(C)n(CCCN2CCN(C)CC2)c2ccc(Cc3cccc(C(=O)N4CCN(CCc5ccccc5)CC4)c3)cc12 [Compound 3506, (3-((2,3-dimethyl-1-(3-(4-methylpiperazin-1-yl)propyl)-1H-indol-5-yl)methyl)phenyl)(4-phenethylpiperazin-1-yl)methanone]
11 | 3.1 | 1.7 | 1.8 | 1.6 | 1.8 | 3.1 | 2.4 |  |  |  |  |  |  |  | COc1ccc(CCN2CCN(C(=O)c3cccc(Oc4ccc5c(c4)c(C)c(C)n5CCCN4CCN(C)CC4)c3)CC2)cc1 [Compound 3508, (3-((2,3-dimethyl-1-(3-(4-methylpiperazin-1-yl)propyl)-1H-indol-5-yl)oxy)phenyl)(4-(4-methoxyphenethyl)piperazin-1-yl)methanone]
12 | 3.2 | 1.8 | 1.3 | 0.7 | 1.2 | 1.3 | 2.1 |  |  |  |  |  |  |  | Cc1c(C)n(CCCN2CCN(C)CC2)c2ccc(Oc3cccc(C(=O)N4CCN(CCc5ccccc5)CC4)c3)cc12 [Compound 3512, (3-((2,3-dimethyl-1-(3-(4-methylpiperazin-1-yl)propyl)-1H-indol-5-yl)oxy)phenyl)(4-phenethylpiperazin-1-yl)methanone]
13 | 3.1 | 3.3 | 3.3 | 3.4 | 3.6 | 3.8 | 4 |  |  |  |  |  |  |  | Cc1c(C)n(CCCN2CCN(C)CC2)c2ccc(Nc3cccc(C(=O)N4CCN(CCc5ccc(F)cc5)CC4)c3)cc12 [Compound 3513, (3-((2,3-dimethyl-1-(3-(4-methylpiperazin-1-yl)propyl)-1H-indol-5-yl)amino)phenyl)(4-(4-fluorophenethyl)piperazin-1-yl)methanone]
14 | 3.1 | 1.3 | 1.4 | 1.3 | 1.3 | 3.8 | 3.5 |  |  |  |  |  |  |  | COc1ccc(CCN2CCN(C(=O)c3cccc(Nc4ccc5c(c4)c(C)c(C)n5CCCN4CCN(C)CC4)c3)CC2)cc1 [Compound 3514, (3-((2,3-dimethyl-1-(3-(4-methylpiperazin-1-yl)propyl)-1H-indol-5-yl)amino)phenyl)(4-(4-methoxyphenethyl)piperazin-1-yl)methanone]
